Test results taken from the NIST ThermoML archive (doi:10.1016/j.jct.2010.08.006).

Tests used:
[1] = xn = mol fraction of the nth substance listed; conditions: 101 kPa, Liquid, Vibrating tube method
[2] = 101.33 kPa, Liquid, Vibrating tube method

C1CCOC1 [tetrahydrofuran] + O
mass density [kg/m3], [1]
Conditions | 278.15 K | 288.15 K | 298.15 K | 308.15 K | 318.15 K
x2 = 0.001775 | 903.78 | 893.01 | 882.11 | 871.08 | 859.91
x2 = 0.003887 | 903.87 | 893.1 | 882.19 | 871.16 | 859.99
x2 = 0.005362 | 903.93 | 893.16 | 882.25 | 871.23 | 860.05
x2 = 0.007677 | 904.02 | 893.25 | 882.35 | 871.32 | 860.15
x2 = 0.01096 | 904.16 | 893.38 | 882.48 | 871.45 | 860.28
x2 = 0.0142 | 904.29 | 893.52 | 882.61 | 871.58 | 860.41
x2 = 0.01729 | 904.42 | 893.65 | 882.74 | 871.71 | 860.53
x2 = 0.01971 | 904.52 | 893.75 | 882.84 | 871.81 | 860.63
x2 = 0.02568 | 904.78 | 894 | 883.09 | 872.06 | 860.88
x2 = 0.03393 | 905.13 | 894.35 | 883.44 | 872.41 | 861.22
x2 = 0.04278 | 905.52 | 894.74 | 883.83 | 872.79 | 861.6

C1CCOC1 [tetrahydrofuran]
[2]
Conditions | mass density [kg/m3]
278.15 K | 903.71
288.15 K | 892.94
298.15 K | 882.04
308.15 K | 871.01
318.15 K | 859.84

[2H]O[2H] [water-d2] + C1CCOC1
mass density [kg/m3], [1]
Conditions | 278.15 K | 288.15 K | 298.15 K | 308.15 K | 318.15 K
x1 = 0.001848 | 903.83 | 893.06 | 882.16 | 871.13 | 859.96
x1 = 0.003689 | 903.96 | 893.18 | 882.28 | 871.25 | 860.08
x1 = 0.005866 | 904.1 | 893.33 | 882.43 | 871.4 | 860.22
x1 = 0.008339 | 904.27 | 893.5 | 882.59 | 871.56 | 860.38
x1 = 0.01068 | 904.43 | 893.65 | 882.75 | 871.72 | 860.54
x1 = 0.01396 | 904.65 | 893.88 | 882.97 | 871.93 | 860.76
x1 = 0.01768 | 904.91 | 894.13 | 883.23 | 872.19 | 861
x1 = 0.0203 | 905.09 | 894.31 | 883.4 | 872.36 | 861.18
x1 = 0.02398 | 905.35 | 894.57 | 883.66 | 872.62 | 861.43
x1 = 0.02882 | 905.69 | 894.9 | 883.99 | 872.95 | 861.76
x1 = 0.03403 | 906.06 | 895.27 | 884.36 | 873.31 | 862.11
x1 = 0.03668 | 906.25 | 895.46 | 884.55 | 873.49 | 862.3
x1 = 0.04255 | 906.67 | 895.88 | 884.96 | 873.91 | 862.71
